The text below walks through data of patent publication US20030113369A1, “Liposomes with enhanced circulation time and method of treatment” (priority 1991, published 2003).

In series [1] the test system is C-26 colon carcinoma. The note with it: cited from earlier work.
The nature of series [2]: Maximum tolerated dose. The note with it: mouse, in vivo. As to the method: Solutions of free doxorubicin HCl, epirubicin HCl were obtained as above. PEG-liposome formulations containing either doxorubicin or epirubicin, at a drug concentration of 70-90 μg compound/μmole liposome lipid, were prepared as described in Example 10. Conventional liposomes (no PEG-derivatized lipid) were loaded with doxorubicin to a drug concentration of […] lipid using standard techniques.
Each of the five formulations was administered to 35 mice, at a dose between 10 and 40 mg drug/kg body weight, in 5 mg/kg increments, with five receiving each dosage.

The nature of series [3]: Multidose toxicity of epirubicin: weight change and heart histology. Type of series: in vivo, mice.
Series [4] concerns syngeneic MC2 mouse mammary carcinoma. Briefly: Tumor treatment, breast carcinoma. It is filed as in vivo, C3H/He mice. The conditions noted are these: 6 mg/kg IV on days 1, 8 and 15; FIG. 21. As to the method: Ten-week-old female C3H/He mice were randomized into three groups of 20 animals and each received bilateral subcutaneous implants of 10^5˜10^6 syngeneic MC2 mouse mammary carcinoma cells on day 0. Intravenous injections of 6 mg/kg of free epirubicin, PEG liposomes with entrapped epirubicin (6 mg/kg) or a saline control were given on days 1, 8 and 15. Weights of the animals were taken on days 0, 7, 14, 22 and 24.
Results of the study are plotted in FIG. 21, where mean tumor size for the three treatment groups is as indicated, expressed as mean tumor size (in mm^3×10^−1) for all three treatment groups. […] At day 24 the statistical confidence between the liposome and free drug groups is extremely high (+=9.9, p<0.0000001 using the Student's +tests).

Series [5] concerns C-26 colon carcinoma. Briefly: Tumor treatment, subcutaneous colon carcinoma. It is filed as in vivo, mice. As to the method:
Vesicle-forming lipids containing PEG-PE, PG, PHEPC, and cholesterol and α-TC in a mole ratio of 0.15:0.3:1.85:1:0.2 were dissolved in chloroform to a final lipid concentration of 25 μmol phospholipid/ml. The lipid mixture was dried into a thin film under reduced pressure. […] The MLV suspension was frozen in a dry ice acetone bath and thawed three times and sized to 80-100 nm by extrusion as detailed above. An ammonium ion gradient was created substantially as described in Example 10. The liposomes were loaded with epirubicin, and free (unbound drug) removed also as described in Example 10 for doxorubicin. […] Epirubicin HCl and doxorubicin HCL, the commercial products, were obtained from the hospital pharmacy.
About 10^6 cells C-26 colon carcinoma cells were injected subcutaneously into three groups of 35 mice. The groups were subdivided into five 7-animal subgroups.
Each group was followed for 28 days. Tumor size was measured for each animal on days 5, 7, 12, 14, 17, 21, 24 and 28. The growth of the tumor in each subgroup (expressed as the mean tumor size of the individual animals) at each time point is plotted in FIG. 15A.
The same number of animals were inoculated with the same number of tumor cells as described above.

Series [6] can be described thus: Survival at 120 days following a single injection.
Series [7] has as its system syngeneic mammary carcinoma cells (MC2). The note with it: cited from earlier work.

Entries after “also recorded” stand apart in the source; their conditions may differ. Counter-ions that a name gives are not always drawn.

By MTD is commonly meant the largest dose that counted as tolerated. Read a low MTD as a narrow tolerated range. Regarding `COc1cccc2c1C(=O)c1c(O)c3c(c(O)c1C2=O)C[C@@](O)(C(=O)CO)C[C@@H]3O[C@H]1C[C@H](N)[C@@H](O)[C@H](C)O1` [EPI, Epirubicin HCl], in series [1], the “in vitro activity against C-26 colon carcinoma” value is on record as “show in vitro activity against this tumor”. The compound also showed an MTD at 14 days in series [2] of 10 mg/kg. In addition, the weight change entry in series [3] (three weekly injections from day 3, 26-day period, C-26 tumor-bearing mice, FIG. 19) was “lost weight rapidly starting about day 10”. The “histological examination of heart muscle tissue” value in series [3] (three weekly injections, 6 mg/kg free, 6 or 9 mg/kg liposomal) is listed as “significant cardiomyopathy was observed”. Further, the tumor growth entry in series [4] is “the tumor grows quickly”. The “survival of the animals at 120 days following tumor implantation” value in series [5] (6 mg/kg on days 1, 8 and 15, seven animals per group) is given as “none”. Moreover, the “tumor growth compared with the saline control” value in series [5] (IV on days 1, 8 and 15, FIG. 15A) is on record as “neither free doxorubicin nor free epirubicin at 6 mg/kg significantly suppressed tumor growth”. In addition, the “tumor response, delayed treatment” value in series [5] (days 3, 10, 17 or days 10, 17, 24, 6 mg/kg (liposomes also 9 mg/kg), FIGS. 15B, 15C, 18, listed as free epirubicin, HCl) is listed as “only a modest retardation in the rate of tumor growth; also recorded: no tumor regression was seen”. The “Surviving mice at 120 days” value in series [6] (3 mg/kg) is reported as 5/5; in series [6] (6 mg/kg), 5/5; in series [6] (9 mg/kg), 2/5; in series [6] (12 mg/kg), 0/5; in series [6] (15 mg/kg), 0/5. Also, in series [6] (120 days), the “dose at which 2/5 animals died” value is listed as 9 mg/kg. Besides, the “in vitro sensitivity of MC2 cells” value in series [7] is recorded as “sensitive in vitro”.
